# Measurements as given in US11413289B2 (Aerovate Therapeutics, Inc., priority 2019, dated 2022).
# Assay: Thermal stability and polymorphism of imatinib salts
# Format: physicochemical
row,Compound,thermal stability and polymorphic forms
1,O=S(=O)(O)CCO [isethionate],suitable thermal stability and few or single polymorphic forms
2,malate,suitable thermal stability and few or single polymorphic forms
3,malonate,suitable thermal stability and few or single polymorphic forms
4,tartrate,suitable thermal stability and few or single polymorphic forms
